# Results published in US20240325390A1 (Aerovate Therapeutics, Inc., priority 2020, published 2024).
# Where a name gives a salt, the structure may show the parent alone. Read-outs that look alike come from different tables or passages of the source.
# What was measured:
# [1] = clinical; conditions: human, in vivo
# [2] = imatinib in plasma, MAD Day 7, mean
# [3] = clinical; conditions: human, plasma; for AUC / AUC(0-t) / Cmax: inhaled or intranasal; for Cmax / concentration at 7 day: imatinib in plasma, mean; for concentration at 7 day: inhaled
structure (smiles),measurement,setting,value
"Cc1ccc(NC(=O)c2ccc(CN3CCN(C)CC3)cc2)cc1Nc1nccc(-c2cccnc2)n1 [AV-101, imatinib]",AUC(0-t),"[1]; inhaled or intranasal, 1 mg",9.9 ng·h/mL
same,Cmax,"[1]; inhaled or intranasal, 1 mg",1.16 ng/mL
same,Tmax,"[1]; inhaled or intranasal, 1 mg",3 h
same,AUC(0-t),"[1]; inhaled or intranasal, 3 mg",65.4 ng·h/mL
same,Cmax,"[1]; inhaled or intranasal, 3 mg",3.81 ng/mL
same,AUC(0-t),"[1]; inhaled or intranasal, 10 mg",319 ng·h/mL
same,Cmax,"[1]; inhaled or intranasal, 10 mg",20.2 ng/mL
same,Tmax,"[1]; inhaled or intranasal, 10 mg",0.18 h
same,AUC(0-t),"[1]; inhaled or intranasal, 30 mg",1280 ng·h/mL
same,Cmax,"[1]; inhaled or intranasal, 30 mg",73.8 ng/mL
same,AUC(0-t),"[1]; inhaled or intranasal, 90 mg",6670 ng·h/mL
same,Cmax,"[1]; inhaled or intranasal, 90 mg",424 ng/mL
same,Fluctuation,[2]; inhaled 10 mg AV-101 BID,78.28%
same,Fluctuation,[2]; inhaled 30 mg AV-101 BID,70.30%
same,Fluctuation,[2]; inhaled 90 mg AV-101 BID,67.18%
same,AUC,[3]; 10 mg,590 ng·h/mL
same,AUC(0-t),[3]; 10 mg,182 ng·h/mL
same,Cmax,"[3]; 10 mg, MAD Day 1, inhaled 10 mg AV-101",24.1 ng/mL
same,Cmax,"[3]; 10 mg, ss, MAD Day 7, inhaled 10 mg AV-101 BID",69.2 ng/mL
same,AUC,[3]; 30 mg,1920 ng·h/mL
same,AUC(0-t),[3]; 30 mg,673 ng·h/mL
same,Cmax,"[3]; 30 mg, MAD Day 1, inhaled 30 mg AV-101",88.7 ng/mL
same,Cmax,"[3]; 30 mg, ss, MAD Day 7, inhaled 30 mg AV-101 BID",215 ng/mL
same,AUC,[3]; 90 mg,7970 ng·h/mL
same,AUC(0-t),[3]; 90 mg,2210 ng·h/mL
same,Cmax,"[3]; 90 mg, MAD Day 1, inhaled 90 mg AV-101",262 ng/mL
same,Cmax,"[3]; 90 mg, ss, MAD Day 7, inhaled 90 mg AV-101 BID",890 ng/mL
same,concentration at 7 day,"[3]; 10 mg, Cav, MAD Day 7, inhaled 10 mg AV-101 BID",49.1 ng/mL
same,concentration at 7 day,"[3]; 10 mg, Cmin, ss, MAD Day 7, inhaled 10 mg AV-101 BID",31.7 ng/mL
same,concentration at 7 day,"[3]; 30 mg, Cav, MAD Day 7, inhaled 30 mg AV-101 BID",160 ng/mL
same,concentration at 7 day,"[3]; 30 mg, Cmin, ss, MAD Day 7, inhaled 30 mg AV-101 BID",118 ng/mL
same,concentration at 7 day,"[3]; 90 mg, Cav, MAD Day 7, inhaled 90 mg AV-101 BID",664 ng/mL
same,concentration at 7 day,"[3]; 90 mg, Cmin, ss, MAD Day 7, inhaled 90 mg AV-101 BID",534 ng/mL
"Cc1ccc(NC(=O)c2ccc(CN3CCN(C)CC3)cc2)cc1Nc1nccc(-c2cccnc2)n1 [Imatinib, imatinib mesylate, reference compound]",AUC(0-t),"[1]; po, 400 mg",32700 ng·h/mL
same,Cmax,"[1]; po, 400 mg",1710 ng/mL
